In ChEMBL document CHEMBL1132761, “Novel Dmt-Tic dipeptide analogues as selective delta-opioid receptor antagonists” (Bioorg Med Chem Lett, 2000):
Non-standard residues stand in square brackets, D forms with d. Residues, ends and D or L forms follow the SMILES beside them. Dmt = Cc1cc(O)cc(C)c1C[C@H](N)C(=O)O; Tic = O=C(O)[C@@H]1Cc2ccccc2CN1

What was measured:
[1] = molecular target: Kappa-type opioid receptor (Homo sapiens, UniProt P41145); assay: Compound was evaluated for binding affinity towards Opioid receptor kappa 1 by displacing 125 I-DPDYN
Kappa-type opioid receptor, sequence (P41145 whole entry): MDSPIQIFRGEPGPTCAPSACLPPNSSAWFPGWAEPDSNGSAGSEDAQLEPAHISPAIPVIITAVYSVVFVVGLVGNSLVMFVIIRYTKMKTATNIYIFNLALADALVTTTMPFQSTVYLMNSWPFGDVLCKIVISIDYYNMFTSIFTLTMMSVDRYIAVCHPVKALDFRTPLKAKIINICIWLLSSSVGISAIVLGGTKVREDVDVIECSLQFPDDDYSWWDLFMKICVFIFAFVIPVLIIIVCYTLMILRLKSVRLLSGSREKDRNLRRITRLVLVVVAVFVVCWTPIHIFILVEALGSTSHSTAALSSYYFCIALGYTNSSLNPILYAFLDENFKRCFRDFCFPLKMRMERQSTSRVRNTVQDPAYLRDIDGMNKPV

[2] = molecular target: T1, Delta-type opioid receptor (Homo sapiens, UniProt P41143); assay: Compound was evaluated for binding affinity towards Opioid receptor delta 1 by displacing 125 I-deltorphin II
T1 sequence (P41143 whole entry): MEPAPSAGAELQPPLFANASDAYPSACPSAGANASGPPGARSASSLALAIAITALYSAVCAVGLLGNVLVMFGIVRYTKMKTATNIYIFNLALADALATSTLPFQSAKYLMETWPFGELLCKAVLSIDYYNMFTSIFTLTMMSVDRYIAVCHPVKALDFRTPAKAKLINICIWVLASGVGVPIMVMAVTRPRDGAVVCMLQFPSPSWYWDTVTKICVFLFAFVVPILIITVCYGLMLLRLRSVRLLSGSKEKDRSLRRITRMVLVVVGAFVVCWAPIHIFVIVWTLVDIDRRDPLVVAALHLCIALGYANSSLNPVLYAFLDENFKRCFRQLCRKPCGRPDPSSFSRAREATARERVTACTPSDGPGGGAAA

[3] = molecular target: Mu-type opioid receptor (Homo sapiens, UniProt P35372); assay: Compound was evaluated for binding affinity towards Opioid receptor mu 1 by displacing 125 I-FK-33824
Mu-type opioid receptor, sequence (P35372 whole entry): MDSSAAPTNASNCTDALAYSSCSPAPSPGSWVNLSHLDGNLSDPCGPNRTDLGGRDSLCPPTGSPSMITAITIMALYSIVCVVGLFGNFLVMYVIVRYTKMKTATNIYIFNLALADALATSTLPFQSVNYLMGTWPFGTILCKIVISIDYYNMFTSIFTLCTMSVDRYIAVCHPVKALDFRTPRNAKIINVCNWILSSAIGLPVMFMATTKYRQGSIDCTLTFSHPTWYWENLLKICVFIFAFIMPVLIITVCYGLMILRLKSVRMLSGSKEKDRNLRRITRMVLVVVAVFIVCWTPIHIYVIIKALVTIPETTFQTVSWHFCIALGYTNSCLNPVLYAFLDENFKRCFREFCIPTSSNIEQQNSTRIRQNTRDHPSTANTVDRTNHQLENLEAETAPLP

[4] = molecular target: Opioid receptors; mu & delta (Homo sapiens) (UniProt P41143+P35372); assay: Ratio of binding affinity of compound to mu receptor compared to that of delta receptor (Mu/Delta); assay type: protein assay
Opioid receptors; mu & delta (Homo sapiens), sequence (P35372 whole entry, looked up): as the sequence (P35372 whole entry) above
Opioid receptors; mu & delta (Homo sapiens), sequence (P41143 whole entry, looked up): as the sequence (P41143 whole entry) above

[5] = molecular target: T1, Delta-type opioid receptor; assay: Compound was tested for its ability to block the effect of selective delta opioid agonist SNC-80 in the functional assay
[6] = molecular target: T1, Delta-type opioid receptor; assay: Effective concentration for agonistic activity towards delta opioid receptor was determined by [35S]GTP-gamma-S functional assay

SMILES: Cc1cc(O)cc(C)c1C[C@H](N)C(=O)N1Cc2cc(-c3ccccc3)ccc2C[C@H]1C(=O)O
- IC50 [1]: 5740 nM
- IC50 [2]: 13.2 nM
- IC50 [3]: 635 nM
- Ratio [4]: 48.1

SMILES: COc1ccc(-c2ccc3c(c2)CN(C(=O)C(N)Cc2c(C)cc(O)cc2C)[C@H](C(=O)O)C3)cc1 (stereo partly drawn)
- Ke [5]: 38.6 nM
- IC50 [1]: > 10000 nM
- IC50 [2]: 4.9 nM
- IC50 [3]: 2650 nM
- Ratio [4]: 546

SMILES: COc1ccc2c(c1)CN(C(=O)C(N)Cc1c(C)cc(O)cc1C)[C@H](C(=O)O)C2 (stereo partly drawn)
- IC50 [1]: 9000 nM
- IC50 [2]: 10.9 nM
- IC50 [3]: 2280 nM
- Ratio [4]: 211

SMILES: Cc1cc(O)cc(C)c1C[C@H](N)C(=O)N1Cc2cc(-c3ccc(F)cc3)ccc2C[C@H]1C(=O)O
- Ke [5]: 11.5 nM
- IC50 [1]: 7560 nM
- IC50 [2]: 3.8 nM
- IC50 [3]: 587 nM
- Ratio [4]: 155

SMILES: Cc1cc(O)cc(C)c1C[C@H](N)C(=O)N1Cc2c(cc(Br)c(O)c2Br)C[C@H]1C(=O)O
- IC50 [1]: > 10000 nM
- IC50 [2]: 1080 nM
- IC50 [3]: 1240 nM
- Ratio [4]: 1.1

SMILES: COc1ccc2c(c1)CN(C(=O)[C@@H](N)Cc1c(C)cc(O)cc1C)[C@H](C(=O)O)C2
- IC50 [1]: 9440 nM
- IC50 [2]: 12.1 nM
- IC50 [3]: 2870 nM
- Ratio [4]: 237

SMILES: Cc1cc(O)cc(C)c1CC(N)C(=O)N1Cc2cc(O)ccc2C[C@H]1C(=O)O (stereo partly drawn)
- IC50 [1]: 9290 nM
- IC50 [2]: 236 nM
- IC50 [3]: 2160 nM
- Ratio [4]: 9.2

SMILES: COc1c(Br)cc2c(c1Br)CN(C(=O)[C@H](N)Cc1c(C)cc(O)cc1C)[C@H](C(=O)O)C2
- IC50 [2]: 571 nM
- IC50 [3]: 8240 nM
- Ratio [4]: 14.4

SMILES: COc1ccc(-c2cc3c(cc2OC)CN(C(=O)C(N)Cc2c(C)cc(O)cc2C)[C@H](C(=O)O)C3)cc1 (stereo partly drawn)
- IC50 [1]: > 10000 nM
- IC50 [2]: 1520 nM
- IC50 [3]: 4640 nM
- Ratio [4]: 3.1

SMILES: Cc1cc(O)cc(C)c1C[C@@H](N)C(=O)N1Cc2cc(-c3ccc(F)cc3)ccc2C[C@H]1C(=O)O
- IC50 [1]: > 10000 nM
- IC50 [2]: 81.7 nM

SMILES: Cc1cc(O)cc(C)c1CC(N)C(=O)N1Cc2cc(-c3cc4ccccc4o3)ccc2C[C@H]1C(=O)O (stereo partly drawn)
- IC50 [1]: > 10000 nM
- IC50 [2]: 52.7 nM
- IC50 [3]: 2440 nM

SMILES: Cc1cc(O)cc(C)c1C[C@@H](N)C(=O)N1Cc2c(cc(Br)c(O)c2Br)C[C@H]1C(=O)O
- IC50 [2]: > 10000 nM
- IC50 [3]: 8130 nM

SMILES: COc1cc2c(cc1-c1ccc(F)cc1)C[C@@H](C(=O)O)N(C(=O)C(N)Cc1c(C)cc(O)cc1C)C2 (stereo partly drawn)
- IC50 [1]: > 10000 nM
- IC50 [2]: 1160 nM
- IC50 [3]: 7220 nM
- Ratio [4]: 6.2

SMILES: Cc1cc(O)cc(C)c1C[C@H](N)C(=O)N1Cc2ccccc2C[C@H]1C(=O)O (H-[Dmt]-[Tic]-OH)
- Ke [5]: 5.3 nM
- IC50 [1]: 37500 nM
- IC50 [2]: 1.6 nM
- IC50 [3]: 894 nM
- Ratio [4]: 558

SMILES: Cc1cc(O)cc(C)c1C[C@@H](N)C(=O)N1Cc2cc(-c3ccccc3)ccc2C[C@H]1C(=O)O
- IC50 [1]: > 10000 nM
- IC50 [2]: 122 nM
- IC50 [3]: 1940 nM
- Ratio [4]: 15.9

SMILES: COc1cc2c(cc1-c1ccccc1)C[C@@H](C(=O)O)N(C(=O)C(N)Cc1c(C)cc(O)cc1C)C2 (stereo partly drawn)
- IC50 [1]: > 10000 nM
- IC50 [2]: 2540 nM
- IC50 [3]: > 10000 nM

SMILES: COc1c(Br)cc2c(c1Br)CN(C(=O)[C@@H](N)Cc1c(C)cc(O)cc1C)[C@H](C(=O)O)C2
- EC50 [6]: 28 nM
- IC50 [1]: > 10000 nM
- IC50 [2]: 2.5 nM
- IC50 [3]: 1670 nM
- Ratio [4]: 505

SMILES: Cc1cc(O)cc(C)c1CC(N)C(=O)N1Cc2cc(-c3ccsc3)ccc2C[C@H]1C(=O)O (stereo partly drawn)
- IC50 [1]: 2730 nM
- IC50 [2]: 13.5 nM
- IC50 [3]: 142 nM
- Ratio [4]: 10.5

SMILES: COc1ccc(-c2ccc3c(c2)CN(C(=O)[C@@H](N)Cc2c(C)cc(O)cc2C)[C@H](C(=O)O)C3)cc1
- IC50 [1]: > 10000 nM
- IC50 [2]: 5.8 nM
- IC50 [3]: 1140 nM
- Ratio [4]: 211
